Data from ChEMBL document CHEMBL1147166, “Structure-activity relationships of methoctramine-related polyamines as muscarinic antagonist: effect of replacing the inner polymethylene chain with cyclic moieties” (Bioorg Med Chem, 2007).

How the values were obtained:
[1] = target: Muscarinic acetylcholine receptor M3 (Cavia porcellus) (UniProt Q8VH26); test: Antagonist potency at muscarinic receptor M3 in guinea pig ileum; format: functional, tissue-based
[2] = system: Mus musculus; test: Antinociceptive activity in mouse assessed as licking latency at 10 ug, icv after 45 mins by hot plate method; format: functional
[3] = system: Mus musculus; test: Antinociceptive activity in mouse assessed as licking latency at 0.1 ug, icv after 45 mins by hot plate method; format: functional
[4] = system: Mus musculus; test: Antinociceptive activity in mouse assessed as licking latency at 0.01 ug, icv after 15 mins by hot plate method; format: functional
[5] = target: Muscarinic acetylcholine receptor M3 (Homo sapiens, UniProt P20309); test: Displacement of [3H] N-methyl-scopolamine chloride from human muscarinic receptor M3 expressed in CHO cells; format: cell-based
[6] = system: Mus musculus; test: Antinociceptive activity in mouse assessed as licking latency at 10 ug, icv after 30 mins by hot plate method; format: functional
[7] = system: Mus musculus; test: Antinociceptive activity in mouse assessed as licking latency at 0.01 ug, icv after 45 mins by hot plate method; format: functional
[8] = system: Mus musculus; test: Antinociceptive activity in mouse assessed as licking latency at 0.3 ug, icv after 60 mins by hot plate method; format: functional
[9] = system: Mus musculus; test: Antinociceptive activity in mouse assessed as licking latency at 1.0 ug, icv after 45 mins by hot plate method; format: functional
[10] = target: T1, Muscarinic acetylcholine receptor M5 (Homo sapiens, UniProt P08912); test: Displacement of [3H] N-methyl-scopolamine chloride from human muscarinic receptor M5 expressed in CHO cells; format: cell-based
T1 sequence (P08912 whole entry): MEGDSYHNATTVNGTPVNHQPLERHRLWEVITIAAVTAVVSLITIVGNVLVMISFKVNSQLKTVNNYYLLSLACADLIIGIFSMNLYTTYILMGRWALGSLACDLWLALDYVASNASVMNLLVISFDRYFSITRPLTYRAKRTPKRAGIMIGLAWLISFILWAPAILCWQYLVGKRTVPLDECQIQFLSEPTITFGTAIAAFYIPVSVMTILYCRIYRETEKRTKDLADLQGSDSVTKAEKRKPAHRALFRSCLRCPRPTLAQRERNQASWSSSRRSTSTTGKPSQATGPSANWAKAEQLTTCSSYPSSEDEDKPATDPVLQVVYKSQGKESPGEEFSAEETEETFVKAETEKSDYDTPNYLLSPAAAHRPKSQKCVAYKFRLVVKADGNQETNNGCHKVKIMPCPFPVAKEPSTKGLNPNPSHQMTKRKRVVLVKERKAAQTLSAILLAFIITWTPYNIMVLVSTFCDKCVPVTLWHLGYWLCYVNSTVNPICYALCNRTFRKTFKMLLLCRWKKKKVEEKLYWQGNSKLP

[11] = target: Cholinesterase (Homo sapiens, UniProt P06276); test: Inhibition of human serum recombinant BChE after 20 mins
[12] = system: Mus musculus; test: Antinociceptive activity in mouse assessed as licking latency at 0.03 ug, icv after 15 mins by hot plate method; format: functional
[13] = system: Mus musculus; test: Antinociceptive activity in mouse assessed as licking latency at 0.1 ug, icv after 30 mins by hot plate method; format: functional
[14] = system: Mus musculus; test: Antinociceptive activity in mouse assessed as licking latency at 1.0 ug, icv after 60 mins by hot plate method; format: functional
[15] = system: Mus musculus; test: Antinociceptive activity in mouse assessed as licking latency at 0.03 ug, icv after 45 mins by hot plate method; format: functional
[16] = system: Mus musculus; test: Antinociceptive activity in mouse assessed as licking latency at 1.0 ug, icv after 30 mins by hot plate method; format: functional
[17] = target: T2, Muscarinic acetylcholine receptor M4 (Homo sapiens) (UniProt P08173); test: Antagonist potency at muscarinic receptor M4 in rabbit vas deferens; format: functional, tissue-based; details: Oryctolagus cuniculus, target entry is the homologue from another species
T2 sequence (whole entry): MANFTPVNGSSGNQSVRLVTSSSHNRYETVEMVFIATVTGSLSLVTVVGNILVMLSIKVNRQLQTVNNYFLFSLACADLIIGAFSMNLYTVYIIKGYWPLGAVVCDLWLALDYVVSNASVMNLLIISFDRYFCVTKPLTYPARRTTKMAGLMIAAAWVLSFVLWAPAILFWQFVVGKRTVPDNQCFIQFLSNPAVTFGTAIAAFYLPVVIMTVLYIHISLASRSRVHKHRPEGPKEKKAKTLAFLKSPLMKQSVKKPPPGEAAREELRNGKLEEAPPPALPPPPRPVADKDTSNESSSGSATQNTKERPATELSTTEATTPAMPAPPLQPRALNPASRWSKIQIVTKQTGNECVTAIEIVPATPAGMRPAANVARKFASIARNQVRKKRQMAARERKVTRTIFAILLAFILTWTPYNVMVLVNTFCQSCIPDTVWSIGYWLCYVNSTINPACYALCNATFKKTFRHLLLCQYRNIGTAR

[18] = system: Mus musculus; test: Antinociceptive activity in mouse assessed as licking latency at 0.1 ug, icv after 60 mins by hot plate method; format: functional
[19] = system: Mus musculus; test: Antinociceptive activity in mouse assessed as licking latency at 10 ug, icv after 60 mins by hot plate method; format: functional
[20] = system: Mus musculus; test: Antinociceptive activity in mouse assessed as licking latency at 0.03 ug, icv after 30 mins by hot plate method; format: functional
[21] = system: Mus musculus; test: Antinociceptive activity in mouse assessed as licking latency at 0.3 ug, icv after 15 mins by hot plate method; format: functional
[22] = system: Mus musculus; test: Antinociceptive activity in mouse assessed as licking latency at 0.01 ug, icv after 60 mins by hot plate method; format: functional
[23] = system: Mus musculus; test: Antinociceptive activity in mouse assessed as licking latency at 0.1 ug, icv after 15 mins by hot plate method; format: functional
[24] = system: Mus musculus; test: Antinociceptive activity in mouse assessed as licking latency at 10 ug, icv after 15 mins by hot plate method; format: functional
[25] = system: Mus musculus; test: Antinociceptive activity in mouse assessed as licking latency at 0.3 ug, icv after 45 mins by hot plate method; format: functional
[26] = target: T3, Muscarinic acetylcholine receptor M4 (Homo sapiens, UniProt P08173); test: Displacement of [3H] N-methyl-scopolamine chloride from human muscarinic receptor M4 expressed in CHO cells; format: cell-based
T3 sequence (P08173 whole entry): T2 sequence (whole entry)

[27] = target: T4, Muscarinic acetylcholine receptor M2 (Homo sapiens, UniProt P08172); test: Displacement of [3H] N-methyl-scopolamine chloride from human muscarinic receptor M2 expressed in CHO cells; format: cell-based
T4 sequence (P08172 whole entry): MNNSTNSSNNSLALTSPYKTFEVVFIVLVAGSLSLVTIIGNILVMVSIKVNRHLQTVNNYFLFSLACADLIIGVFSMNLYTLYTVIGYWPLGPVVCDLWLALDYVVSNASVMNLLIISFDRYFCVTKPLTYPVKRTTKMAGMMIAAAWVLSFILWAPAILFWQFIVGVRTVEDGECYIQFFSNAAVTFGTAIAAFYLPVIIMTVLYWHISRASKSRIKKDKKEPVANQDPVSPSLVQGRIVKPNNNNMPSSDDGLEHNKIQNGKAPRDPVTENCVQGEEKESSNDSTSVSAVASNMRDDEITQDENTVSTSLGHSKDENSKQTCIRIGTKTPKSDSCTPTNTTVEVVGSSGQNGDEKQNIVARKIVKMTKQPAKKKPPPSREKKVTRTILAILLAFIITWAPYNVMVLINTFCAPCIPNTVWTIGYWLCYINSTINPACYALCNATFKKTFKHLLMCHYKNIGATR

[28] = system: Mus musculus; test: Antinociceptive activity in mouse assessed as licking latency at 0.01 ug, icv after 30 mins by hot plate method; format: functional

Chain of Cholinesterase (P06276 whole entry): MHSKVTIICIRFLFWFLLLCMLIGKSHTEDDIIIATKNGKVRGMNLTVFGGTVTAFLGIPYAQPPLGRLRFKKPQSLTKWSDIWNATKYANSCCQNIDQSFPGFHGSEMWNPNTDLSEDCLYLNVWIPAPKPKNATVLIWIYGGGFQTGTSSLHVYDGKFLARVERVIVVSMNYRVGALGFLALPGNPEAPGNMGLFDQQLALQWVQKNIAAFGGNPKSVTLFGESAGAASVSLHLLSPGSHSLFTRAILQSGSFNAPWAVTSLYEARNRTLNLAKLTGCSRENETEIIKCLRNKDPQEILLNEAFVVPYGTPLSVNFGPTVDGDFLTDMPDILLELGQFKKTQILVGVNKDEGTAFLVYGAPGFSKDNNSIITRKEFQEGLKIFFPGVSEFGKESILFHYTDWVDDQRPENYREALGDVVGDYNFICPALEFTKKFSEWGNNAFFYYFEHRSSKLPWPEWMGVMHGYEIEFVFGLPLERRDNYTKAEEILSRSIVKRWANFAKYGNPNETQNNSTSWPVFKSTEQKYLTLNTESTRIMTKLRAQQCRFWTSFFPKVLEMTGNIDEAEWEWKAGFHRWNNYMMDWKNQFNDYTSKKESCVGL
Chain of Muscarinic acetylcholine receptor M3 (P20309 whole entry): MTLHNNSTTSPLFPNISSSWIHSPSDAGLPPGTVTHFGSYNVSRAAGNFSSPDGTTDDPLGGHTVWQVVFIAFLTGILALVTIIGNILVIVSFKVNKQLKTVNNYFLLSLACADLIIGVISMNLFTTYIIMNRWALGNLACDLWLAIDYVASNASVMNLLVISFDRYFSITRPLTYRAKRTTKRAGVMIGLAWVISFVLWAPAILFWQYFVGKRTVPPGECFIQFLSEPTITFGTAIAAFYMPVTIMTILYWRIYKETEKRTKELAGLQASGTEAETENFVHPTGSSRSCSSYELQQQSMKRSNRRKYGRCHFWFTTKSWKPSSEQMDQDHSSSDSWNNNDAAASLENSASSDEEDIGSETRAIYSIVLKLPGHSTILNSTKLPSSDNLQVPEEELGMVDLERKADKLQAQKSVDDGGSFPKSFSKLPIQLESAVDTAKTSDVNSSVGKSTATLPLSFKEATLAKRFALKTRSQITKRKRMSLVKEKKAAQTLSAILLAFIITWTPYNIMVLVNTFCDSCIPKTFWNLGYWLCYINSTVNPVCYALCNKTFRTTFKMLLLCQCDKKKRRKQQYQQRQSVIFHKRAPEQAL
Chain of Muscarinic acetylcholine receptor M3 (Cavia porcellus) (Q8VH26 1-587): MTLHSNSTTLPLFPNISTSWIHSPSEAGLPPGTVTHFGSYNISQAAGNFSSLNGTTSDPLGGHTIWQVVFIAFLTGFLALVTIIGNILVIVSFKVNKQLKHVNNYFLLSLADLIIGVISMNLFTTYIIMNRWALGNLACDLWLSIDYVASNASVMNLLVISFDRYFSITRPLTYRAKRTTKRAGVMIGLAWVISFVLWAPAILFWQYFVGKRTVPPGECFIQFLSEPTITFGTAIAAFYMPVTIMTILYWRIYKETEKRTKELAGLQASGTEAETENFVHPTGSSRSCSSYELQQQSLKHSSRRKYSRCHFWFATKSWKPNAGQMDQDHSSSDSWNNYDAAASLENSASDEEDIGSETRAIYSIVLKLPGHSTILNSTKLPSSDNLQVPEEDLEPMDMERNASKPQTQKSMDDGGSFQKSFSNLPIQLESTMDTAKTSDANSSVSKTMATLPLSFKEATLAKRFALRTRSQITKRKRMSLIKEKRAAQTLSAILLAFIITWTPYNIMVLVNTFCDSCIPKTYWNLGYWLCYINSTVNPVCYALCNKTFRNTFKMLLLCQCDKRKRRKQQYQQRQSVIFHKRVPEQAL

SMILES: COc1ccccc1CNCCCCCCN1CCC(CCC2CCN(CCCCCCNCc3ccccc3OC)CC2)CC1
- pKb [1]: 6.58
- Time [2]: 17.7 s
- Time [3]: 22.1 s
- Time [4]: 15.9 s
- Ki [5]: 214 nM
- Time [6]: 15.6 s
- Time [7]: 18.6 s
- Time [8]: 15.7 s
- Time [9]: 18.5 s
- Ki [10]: 170 nM
- IC50 [11]: 10500 nM
- Time [12]: 18.6 s
- Time [13]: 24.5 s
- Time [14]: 19.5 s
- Time [15]: 18.3 s
- Time [16]: 21.3 s
- pKb [17]: 5.56
- Time [18]: 18.6 s
- Time [19]: 18.3 s
- Time [20]: 19.4 s
- Time [21]: 23.8 s
- Time [22]: 14.2 s
- Time [23]: 24.7 s
- Time [24]: 13.3 s
- Time [25]: 20.1 s
- Ki [26]: 40.7 nM
- Ki [27]: 6.03 nM
- Time [28]: 17.1 s
